Test results from US20250302343A1, “AN ELECTRODE ARRAY FOR MEASURING THE PH OF ANIMAL TISSUES, A PROBE […] AN ARRAY, AND AN ASSEMBLY COMPRISING SAID PROBE” (QUANTUM I[…]. Z O.O., priority 2022, published 2025).
Entries after “also recorded” stand apart in the source; their conditions may differ.

Settings: electrodes comprising the ionic liquid in the reference electrode membrane; ISO 10993-5:2009 (E) and ISO 10993-12:2021 (E)
Description: An evaluation of the acute cytotoxicity of the reference electrode components was performed.
Cytotoxicity-based biocompatibility tests were performed according to the procedures of ISO 10993-5:2009 (E) and ISO 10993-12:2021 (E) standards.

| Molecule | acute cytotoxicity |
| --- | --- |
| CC(=O)[O-].CCCCn1cc[n+](C)c1 [1-butyl-3-methylimidazolium acetate] | no significant toxicity |
| 1-ethyl-3-methylimidazolium bis(trifluoromethyl sulfonyl)imide | no significant toxicity; also recorded: lowest cytotoxicity |
| CCCCn1cc[n+](C)c1.F[P-](F)(F)(F)(F)F [1-butyl-3-methylimidazolium hexafluorophosphate] | no significant toxicity |
| choline acetate | no significant toxicity |
| CCCCn1cc[n+](C)c1.[Cl-] [1-butyl-3-methylimidazolium chloride] | no significant toxicity |
| choline phosphate | no significant toxicity |
